ChEMBL document CHEMBL1201862, “PubChem BioAssay data set” (2004)
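Tested at 5 concentrations; 48 h exposure; 96-well plates; endpoints linearly interpolated, else capped at highest concentration. GI50 = concentration required for 50% inhibition of growth.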 Active and inactive are the calls of the source. Cut-off read from the data, not from the text of the source: active = GI50 up to about 1.1 µM and inactive = higher.

How the values were obtained:
Test in all cases: NCI tumour cell line growth inhibition, 48 h
[1] = system: HCT-116
[2] = system: T47D
[3] = system: SN12C
[4] = system: SW-620
[5] = system: Hs-578T
[6] = system: OVCAR-4
[7] = system: KM12
[8] = system: U-251
[9] = system: HOP-62
[10] = system: IGROV-1
[11] = system: HOP-92
[12] = system: NCI-H226
[13] = system: SNB-19
[14] = system: DU-145
[15] = system: SF-295
[16] = system: SK-OV-3
[17] = system: COLO 205
[18] = system: MDA-N
[19] = system: NCI-H460
[20] = system: EKVX
[21] = system: UACC-257
[22] = system: MCF7
[23] = system: Malme-3M
[24] = system: CAKI-1
[25] = system: SK-MEL-2
[26] = system: SK-MEL-28
[27] = system: SNB-75
[28] = system: 786-0
[29] = system: SF-539
[30] = system: RPMI-8226
[31] = system: RXF 393
[32] = system: MOLT-4
[33] = system: HT-29
[34] = system: ACHN
[35] = system: K562
[36] = system: MDA-MB-231
[37] = system: TK-10
[38] = system: SK-MEL-5
[39] = system: M14
[40] = system: OVCAR-8
[41] = system: MDA-MB-435
[42] = system: HCT-15
[43] = system: SF-268
[44] = system: NCI-H522
[45] = system: A498
[46] = system: A549
[47] = system: HCC 2998
[48] = system: SR
[49] = system: LOX IMVI
[50] = system: UACC-62
[51] = system: PC-3
[52] = system: NCI/ADR-RES
[53] = system: CCRF-CEM
[54] = system: OVCAR-5
[55] = system: HL-60
[56] = system: UO-31
[57] = system: NCI-H23
[58] = system: OVCAR-3
[59] = system: BT-549

Measured: GI50

CC1(C)O[C@H](C(=O)O)[C@@H](C(=O)O)O1
> 100 µM: [42]
inactive: [1] > 100 µM | [2] > 100 µM | [3] > 100 µM | [4] > 100 µM | [5] > 100 µM | [6] > 100 µM | [7] > 100 µM | [8] > 100 µM | [9] > 100 µM | [10] > 100 µM | [11] > 100 µM | [12] > 100 µM | [13] > 100 µM | [14] > 100 µM | [15] > 100 µM | [16] > 100 µM | [17] > 100 µM | [18] > 100 µM | [19] > 100 µM | [20] > 100 µM | [21] > 100 µM | [22] > 100 µM | [23] > 100 µM | [24] > 100 µM | [25] > 100 µM | [26] > 100 µM | [27] > 100 µM | [28] > 100 µM | [29] > 100 µM | [30] > 100 µM | [31] > 100 µM | [32] > 100 µM | [33] > 100 µM | [34] > 100 µM | [35] > 100 µM | [36] > 100 µM | [37] > 100 µM | [38] > 100 µM | [39] > 100 µM | [40] > 100 µM | [41] > 100 µM | [43] > 100 µM | [44] > 100 µM | [45] > 100 µM | [46] > 100 µM | [47] > 100 µM | [48] > 100 µM | [49] > 100 µM | [50] > 100 µM | [51] > 100 µM | [52] > 100 µM | [53] > 100 µM | [54] > 100 µM

O=C1/C(=C/c2ccc(Cl)cc2)N=C(c2ccccc2)N1C1Nc2cc3c(cc2S1)NC(N1C(=O)/C(=C/c2ccc(Cl)cc2)N=C1c1ccccc1)S3 (stereo unspecified)
inactive: [1] 35.9 µM | [2] 28.8 µM | [4] 22 µM | [5] 35.2 µM | [6] 59.2 µM | [7] 54 µM | [8] 32.3 µM | [9] 90.2 µM | [10] 47.6 µM | [11] 48.6 µM | [12] > 100 µM | [14] 46.3 µM | [15] 73.5 µM | [16] > 100 µM | [18] 45.2 µM | [19] 30.4 µM | [20] > 100 µM | [21] > 100 µM | [22] 42.2 µM | [24] > 100 µM | [25] 88.9 µM | [26] > 100 µM | [28] 87.3 µM | [29] > 100 µM | [30] 23.8 µM | [31] 76.6 µM | [32] 4.14 µM | [33] 52.6 µM | [34] > 100 µM | [35] 21.2 µM | [36] > 100 µM | [37] > 100 µM | [38] 34.2 µM | [39] > 100 µM | [56] 80.2 µM | [57] > 100 µM | [40] 39.1 µM | [41] 52.8 µM | [43] 27 µM | [58] 49.8 µM | [44] 18.7 µM | [45] > 100 µM | [47] 61.1 µM | [48] 6.18 µM | [49] 31.7 µM | [51] 40.7 µM | [52] 63.8 µM | [53] 11.5 µM | [54] > 100 µM
active: [55] 0.336 µM
49 µM: [42]

COc1ccc(OC)c2c3c([nH]c12)C(=O)Nc1nc(N)nc(N)c1C3
active: [35] 0.634 µM | [41] 0.273 µM
inactive: [2] > 100 µM | [4] 2.07 µM | [6] > 100 µM | [7] 4.57 µM | [11] > 100 µM | [12] > 100 µM | [14] > 100 µM | [16] > 100 µM | [20] > 100 µM | [21] > 100 µM | [23] 30.8 µM | [25] > 100 µM | [26] > 100 µM | [28] > 100 µM | [59] > 100 µM | [31] > 100 µM | [33] 1.12 µM | [37] > 100 µM | [39] > 100 µM | [40] 4.89 µM | [58] 3.14 µM | [47] > 100 µM | [49] > 100 µM | [54] > 100 µM

O[C@H]1[C@H](O)[C@@H](O)[C@@]2(O)C[C@@H](O)[C@@H]1N2
> 100 µM: [42]
inactive: [1] > 100 µM | [2] > 100 µM | [3] > 100 µM | [4] > 100 µM | [5] > 100 µM | [6] > 100 µM | [7] > 100 µM | [8] > 100 µM | [9] > 100 µM | [10] > 100 µM | [11] > 100 µM | [12] > 100 µM | [13] > 100 µM | [14] > 100 µM | [15] > 100 µM | [16] > 100 µM | [17] > 100 µM | [18] > 100 µM | [19] > 100 µM | [20] > 100 µM | [21] > 100 µM | [22] > 100 µM | [23] > 100 µM | [26] > 100 µM | [27] > 100 µM | [28] > 100 µM | [29] > 100 µM | [31] > 100 µM | [32] > 100 µM | [33] > 100 µM | [34] > 100 µM | [35] > 100 µM | [36] > 100 µM | [37] > 100 µM | [55] > 100 µM | [38] > 100 µM | [39] > 100 µM | [56] 85.7 µM | [57] > 100 µM | [40] > 100 µM | [41] > 100 µM | [43] > 100 µM | [58] > 100 µM | [44] > 100 µM | [45] > 100 µM | [46] > 100 µM | [47] > 100 µM | [48] > 100 µM | [49] > 100 µM | [50] > 100 µM | [51] > 100 µM | [52] > 100 µM | [53] > 100 µM | [54] > 10 µM
